Counter-ions that a name gives are not always drawn.

For one test, the target named is rat TAAR1 (Rattus norvegicus (Rat), UniProt Q923Y9). The test can be described thus: Radioligand binding assay on rat TAAR1. As to conditions: rat TAAR1, HEK-293 membranes; second value of the pair (line below); read-out: Ki (μM) mouse/rat. Here is the method: (§1) For the construction of expression plasmids the coding sequences of human, rat and mouse TAAR 1 were amplified from genomic DNA essentially as described by Lindemann et al.. The Expand High Fidelity PCR System (Roche Diagnostics) was used with 1.5 mM Mg^2+ and purified PCR products were cloned into pCR2.1-TOPO cloning vector (Invitrogen) following the instructions of the manufacturer. PCR products were subcloned into the pIRESneo2 vector (BD Clontech, Palo Alto, Calif.), and expression vectors were sequence verified before introduction in cell lines.
(§2) HEK293 cells (ATCC # CRL-1573) were cultured essentially as described by Lindemann et al. (2005). For the generation of stably transfected cell lines HEK293 cells were transfected with the pIRESneo2 expression plasmids containing the TAAR coding sequences (described above) with Lipofectamine 2000 (Invitrogen) according to the instructions of the manufacturer, and 24 hrs post transfection the culture medium was supplemented with 1 mg/ml G418 (Sigma, Buchs, Switzerland). After a culture period of about 10 d clones were isolated, expanded and tested for responsiveness to trace amines (all compounds purchased from Sigma) with the cAMP Biotrak Enzyme immunoassay (EIA) System (Amersham) following the non-acetylation EIA procedure provided by the manufacturer.
Radioligand Binding Assay on Rat TAAR1
(§3) Membrane Preparation and Radioligand Binding.
(§4) HEK-293 cells stably expressing rat TAAR1 were maintained at 37° C. and 5% CO2 in DMEM high glucose medium, containing fetal calf serum (10%, heat inactivated for 30 min at 56° C.), penicillin/streptomycin (1%), and 375 μg/ml geneticin (Gibco). Cells were released from culture flasks using trypsin/EDTA, harvested, washed twice with ice-cold PBS (without Ca^2+ and Mg^2+), pelleted at 1′000 rpm for 5 min at 4° C., frozen and stored at −80° C. […] The homogenate was centrifuged at 48′000×g for 30 min at 4° C. Subsequently, the supernatant was removed and discarded, and the pellet resuspended in 20 ml HEPES-NaOH (20 mM, pH 7.4) containing 0.1 mM EDTA using the Polytron (20 s at 14′000 rpm). This procedure was repeated and the final pellet resuspended in HEPES-NaOH containing 0.1 mM EDTA and homogenized using the Polytron. Typically, aliquots of 2 ml membrane portions were stored at −80° C. With each new membrane batch the dissociation constant (Kd) was determined via a saturation curve. […] Nonspecific binding was defined as the amount of ^3[H]-(S)-4-[(ethyl-phenyl-amino)-methyl]-4,5-dihydro-oxazol-2-ylamine bound in the presence of 10 μM unlabeled ligand. All compounds were tested at a broad range of concentrations (10 pM to 10 μM) in duplicates. […] The 96 deep well plates were incubated for 1 hr at 4° C. Incubations were terminated by rapid filtration through Unifilter-96 plates (Packard Instrument Company) and glass filters GF/C (Perkin Elmer) presoaked for 1 hr in polyethylenimine (0.3%) and washed 3 times with 1 ml of cold binding buffer. After addition of 45 μl of Microscint 40 (PerkinElmer) the Unifilter-96 plate was sealed and after 1 hr the ratioactivity counted using a TopCount Microplate Scintillation Counter (Packard Instrument Company).

The next test has as its target mouse TAAR1 (Mus musculus (Mouse), UniProt Q923Y8). The test can be described thus: Radioligand binding assay on mouse TAAR1. The conditions noted are these: mouse TAAR1, HEK-293 membranes; first value of the pair (before the slash); read-out: Ki (μM) mouse/rat. As to the method:
as §1, §2
Radioligand Binding Assay on Mouse TAAR1
as §3
as §4, with “expressing mouse” for “expressing rat”

rat TAAR1, sequence (Q923Y9 whole entry): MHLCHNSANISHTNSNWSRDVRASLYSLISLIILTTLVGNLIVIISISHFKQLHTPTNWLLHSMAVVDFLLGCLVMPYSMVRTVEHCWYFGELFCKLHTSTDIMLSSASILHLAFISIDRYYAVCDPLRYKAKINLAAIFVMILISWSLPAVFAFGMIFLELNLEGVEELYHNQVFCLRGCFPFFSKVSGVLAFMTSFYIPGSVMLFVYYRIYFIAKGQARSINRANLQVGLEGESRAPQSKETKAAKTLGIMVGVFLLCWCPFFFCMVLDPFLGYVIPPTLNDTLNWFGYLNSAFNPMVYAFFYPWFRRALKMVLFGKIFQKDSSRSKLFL
mouse TAAR1, sequence (Q923Y8 whole entry): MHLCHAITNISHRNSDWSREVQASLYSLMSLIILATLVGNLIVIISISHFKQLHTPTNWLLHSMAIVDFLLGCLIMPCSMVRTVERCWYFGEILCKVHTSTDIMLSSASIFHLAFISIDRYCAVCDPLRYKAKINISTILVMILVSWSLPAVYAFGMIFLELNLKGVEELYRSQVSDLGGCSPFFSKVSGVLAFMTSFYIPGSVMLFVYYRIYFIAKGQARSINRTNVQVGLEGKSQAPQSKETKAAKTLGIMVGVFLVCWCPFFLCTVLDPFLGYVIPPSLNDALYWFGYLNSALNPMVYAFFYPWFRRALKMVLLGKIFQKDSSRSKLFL

On to `COc1ccc(C#N)cc1NC(=O)Nc1ccc([C@H]2CNCCO2)cc1Br` [Example 58, 1-((S)-2-Bromo-4-morpholin-2-yl-phenyl)-3-(5-cyano-2-methoxy-phenyl)-urea], for which the Ki on rat TAAR1 turned out to be 0.0161 µM; on mouse TAAR1, 0.0038 µM.
Take `N#Cc1cc(F)cc(NC(=O)Nc2ccc([C@@H]3CNCCO3)cc2F)c1` [Example 59, 1-(3-Cyano-5-fluoro-phenyl)-3-((R)-2-fluoro-4-morpholin-2-yl-phenyl)-urea]: the Ki is 0.001 µM at rat TAAR1 and 0.0018 µM at mouse TAAR1.
Consider `N#Cc1ccc(OC(F)F)c(NC(=O)Nc2ccc([C@@H]3CNCCO3)cc2Br)c1` [Example 60, 1-((R)-2-Bromo-4-morpholin-2-yl-phenyl)-3-(5-cyano-2-difluoromethoxy-phenyl)-urea], for which the Ki at rat TAAR1 was found to be 0.001 µM; at mouse TAAR1, 0.0008 µM.
As for `N#Cc1ccc(OC(F)F)c(NC(=O)Nc2ccc([C@H]3CNCCO3)cc2Br)c1` [Example 61, 1-((S)-2-Bromo-4-morpholin-2-yl-phenyl)-3-(5-cyano-2-difluoromethoxy-phenyl)-urea], the Ki on rat TAAR1 is 0.0025 µM; at mouse TAAR1, 0.0018 µM.
For `N#Cc1cccc(NC(=O)Nc2ccc([C@@H]3CNCCO3)cc2F)c1F` [Example 62, (R)-1-(3-Cyano-2-fluorophenyl)-3-(2-fluoro-4-(morpholin-2-yl)phenyl)urea], in that order: 0.0028 µM and 0.0031 µM.
In the case of `N#Cc1cc(NC(=O)Nc2ccc([C@@H]3CNCCO3)cc2F)ccc1F` [Example 63, (R)-1-(3-Cyano-4-fluorophenyl)-3-(2-fluoro-4-(morpholin-2-yl)phenyl)urea], the Ki on rat TAAR1 was found to be 0.0007 µM; on mouse TAAR1 it was 0.0014 µM.
For `O=C(Nc1ccc(Cl)cn1)Nc1ccc([C@H]2CNCCO2)cc1Cl` [Example 64, (S)-1-(2-Chloro-4-(morpholin-2-yl)phenyl)-3-(5-chloropyridin-2-yl)urea], in that order: 0.003 µM and 0.0015 µM.
As to `N#Cc1ccc(NC(=O)Nc2ccc([C@@H]3CNCCO3)cc2Br)cn1` [Example 65, (R)-1-(2-bromo-4-(morpholin-2-yl)phenyl)-3-(6-cyanopyridin-3-yl)urea], the figures for the Ki at rat TAAR1 and at mouse TAAR1 were 0.0218 µM and 0.0037 µM, respectively.
For the compound `N#Cc1ccc(NC(=O)Nc2ccc([C@H]3CNCCO3)cc2Br)cn1` [Example 66, (S)-1-(2-bromo-4-(morpholin-2-yl)phenyl)-3-(6-cyanopyridin-3-yl)urea], the figures for the Ki on rat TAAR1 and at mouse TAAR1 were 0.0161 µM and 0.0033 µM, respectively.
Consider `O=C(Nc1cnc(C(F)(F)F)nc1)Nc1ccc([C@H]2CNCCO2)cc1Br` [Example 69, 1-((S)-2-Bromo-4-morpholin-2-yl-phenyl)-3-(2-trifluoromethyl-pyrimidin-5-yl)-urea], for which the results for the Ki on rat TAAR1 and on mouse TAAR1 were 0.018 µM and 0.0086 µM, respectively.
Turning to `O=C(Nc1cnc(C(F)(F)F)nc1)Nc1ccc([C@@H]2CNCCO2)cc1Br` [Example 70, 1-((R)-2-Bromo-4-morpholin-2-yl-phenyl)-3-(2-trifluoromethyl-pyrimidin-5-yl)-urea], the Ki came to 0.0103 µM on rat TAAR1 and 0.0056 µM at mouse TAAR1.
On to `N#Cc1ccc(OC(F)F)c(NC(=O)Nc2ccc([C@H]3CNCCO3)cc2F)c1` [Example 71, 1-(5-Cyano-2-difluoromethoxy-phenyl)-3-((S)-2-fluoro-4-morpholin-2-yl-phenyl)-urea hydrochloride], for which the Ki at rat TAAR1 came to 0.0012 µM; at mouse TAAR1 it was 0.0018 µM.
For the compound `N#Cc1ccc(OC(F)F)c(NC(=O)Nc2ccc([C@@H]3CNCCO3)cc2F)c1` [Example 72, 1-(5-Cyano-2-difluoromethoxy-phenyl)-3-((R)-2-fluoro-4-morpholin-2-yl-phenyl)-urea hydrochloride], the Ki on rat TAAR1 was 0.001 µM; at mouse TAAR1, 0.0019 µM.
Turning to `O=C(Nc1ccc([C@H]2CNCCO2)cc1F)c1cnn(-c2cccc(OC(F)F)c2)c1` [Example 75, (S)-1-(3-(Difluoromethoxy)phenyl)-N-(2-fluoro-4-(morpholin-2-yl)phenyl)-1H-pyrazole-4-carboxamide], the Ki at rat TAAR1 was found to be 0.0011 µM; on mouse TAAR1, 0.0014 µM.
Turning to `O=C(Nc1ccc([C@H]2CNCCO2)cc1F)c1cnn(-c2ccc(OC(F)F)cc2)c1` [Example 76, (S)-1-(4-(Difluoromethoxy)phenyl)-N-(2-fluoro-4-(morpholin-2-yl)phenyl)-1H-pyrazole-4-carboxamide], the results for the Ki on rat TAAR1 and at mouse TAAR1 were 0.0018 µM and 0.0016 µM, respectively.
With `O=C(NCc1cccc(OC(F)F)c1)Nc1ccc([C@@H]2CNCCO2)cc1F` [Example 77, (R)-1-(3-(Difluoromethoxy)benzyl)-3-(2-fluoro-4-(morpholin-2-yl)phenyl)urea], the Ki on rat TAAR1 was 0.0064 µM; on mouse TAAR1, 0.001 µM.
As to `O=C(NCc1cccc(OC(F)F)c1)Nc1ccc([C@H]2CNCCO2)cc1F` [Example 78, (S)-1-(3-(Difluoromethoxy)benzyl)-3-(2-fluoro-4-(morpholin-2-yl)phenyl)urea], the figures for the Ki at rat TAAR1 and at mouse TAAR1 were 0.0039 µM and 0.0012 µM, respectively.
`N#Cc1ccnc(C(=O)Nc2ccc([C@H]3CNCCO3)cc2F)c1` [Example 79, (S)-4-Cyano-N-(2-fluoro-4-(morpholin-2-yl)phenyl)picolinamide hydrochloride]: the Ki on rat TAAR1 was 0.196 µM; on mouse TAAR1, 0.0022 µM.
Regarding `O=C(Nc1ccc([C@H]2CNCCO2)cc1F)c1cnn(-c2ccc3c(c2)OC(F)(F)O3)c1` [Example 82, (S)-1-(2,2-Difluorobenzo[d][1,3]dioxol-5-yl)-N-(2-fluoro-4-(morpholin-2-yl)phenyl)-1H-pyrazole-4-carboxamide], the Ki came to 0.0016 µM at rat TAAR1 and 0.0013 µM at mouse TAAR1.
For `O=C(Nc1ccc([C@@H]2CNCCO2)c(F)c1)c1ccnc(C(F)(F)F)c1` [Example 83, (R)—N-(3-Fluoro-4-(morpholin-2-yl)phenyl)-2-(trifluoromethyl)isonicotinamide hydrochloride], in that order: 0.0075 µM and 0.006 µM.
On to `CCOc1cc(C(=O)Nc2ccc([C@@H]3CNCCO3)c(F)c2)ccn1` [Example 84, (R)-2-Ethoxy-N-(3-fluoro-4-(morpholin-2-yl)phenyl)isonicotinamide hydrochloride], for which the figures for the Ki at rat TAAR1 and on mouse TAAR1 were 0.0047 µM and 0.0036 µM, respectively.
For `CCOc1ccc(C(=O)Nc2ccc([C@@H]3CNCCO3)c(F)c2)cn1` [Example 85, (R)-6-Ethoxy-N-(3-fluoro-4-(morpholin-2-yl)phenyl)nicotinamide hydrochloride], in that order: 0.0067 µM and 0.0033 µM.

For the origin of these results see patent publication US9029370B2, “Substituted benzamide derivatives” (Hoffmann-La Roche Inc., priority 2011, dated 2015).
